{
  "source": "paper PMC9175492",
  "about": "(Molecular pharmaceutics, 2022)",
  "key": {"[1]": {"test_system": "HeLa (human cervical cancer) cells", "settings": "10% fetal bovine serum; cited from earlier work"}, "HeLa cells [2]": {"test_system": "HeLa cells", "assay": "MTT cell viability assay", "assay_type": "cell-based, human", "settings": "72 h, DMEM 10% FBS"}, "[3]": {"settings": "ratio of cytosolic versus extracellular concentration; cited from earlier work"}, "HeLa cells [4]": {"test_system": "HeLa cells", "assay": "Apparent endosomal escape efficiency", "assay_type": "cell-based, human", "settings": "reference line, 10% or 1% FBS; defined as 100%"}, "[5]": {"test_system": "intracellular Keap1-Nrf2 interaction, ARE reporter-HepG2 cells", "assay": "ARE luciferase reporter assay", "assay_type": "cell-based", "settings": "18 h, 0% FBS, n = 5; for Increase of luciferase activity: 0.31 μM; for Maximal induction of luciferase expression: highest concentration tested (5 μM)"}},
  "note": "Numbered stars: 1 amine (or outer) side, 2 acyl side, 3 side chain; on linkers, the order of the positions; unused ones are H or OH. Bridge positions count the residues as written; N and C are the ends. Square brackets hold non-standard residues; d marks the D form. Peptide text beside a SMILES is read from it. I, II: the chains in the order shown. X2 = NC(=O)[C@H](CCCCNC(=O)COCCOCCN[*:1])N[*:2]; 2Nal = N[C@@H](Cc1ccc2ccccc2c1)C(=O)O; Bta = N[C@@H](Cc1csc2ccccc12)C(=O)O",
  "data": [
    {"smiles": "N=C(N)NCCC[C@@H]1NC(=O)[C@H](Cc2ccc3ccccc3c2)NC(=O)[C@@H](Cc2ccccc2)NC(=O)[C@H](Cc2ccccc2)NC(=O)[C@H](CCC(N)=O)NC(=O)[C@@H](CCCNC(=N)N)NC(=O)[C@H](CCCNC(=N)N)NC(=O)[C@@H](CCCNC(=N)N)NC1=O", "note": "[CPP12, cyclo(Phe-D-Phe-Nal-Arg-D-Arg-Arg-D-Arg-Gln)] (cyclo([2Nal]R[dR]R[dR]QF[dF]))", "values": [
      {"measurement": "Decrease of cytosolic entry efficiency in the presence of 10% FBS", "setting": "[1]", "value": 25, "unit": "fold"},
      {"measurement": "Loss of viability of HeLa cells (MTT)", "setting": "HeLa cells [2]; at ⩾550 μM concentration (so in the source)", "value": "~ 40%"},
      {"measurement": "Viability of HeLa cells (MTT)", "setting": "HeLa cells [2]; up to 25 μM", "value": "did not reduce the viability"},
      {"measurement": "Cytosolic entry efficiency", "setting": "[3]", "value": 120, "unit": "%"},
      {"measurement": "Apparent Endosomal Escape Efficiency (γ, %)", "setting": "HeLa cells [4]", "value": 100, "unit": "%"}
    ]},
    {"smiles": "CC(C)C[C@@H]1NC(=O)[C@H](Cc2ccccc2)NC(=O)[C@H](CCC(=O)O)NC(=O)CNC(=O)[C@H]([C@@H](C)O)NC(=O)[C@H](CCC(=O)O)NC(=O)[C@@H]2CCCN2C(=O)[C@H](CC(=O)O)NC(=O)[C@H](CC(C)C)NC(=O)[C@H](CCC(=O)NCCOCCOCC(=O)NCCCC[C@H](NC(=O)CC[C@@H]2NC(=O)[C@@H](CCCNC(=N)N)NC(=O)[C@H](CCCNC(=N)N)NC(=O)[C@@H](CCCNC(=N)N)NC(=O)[C@H](CCCNC(=N)N)NC(=O)[C@H](Cc3csc4ccccc34)NC(=O)[C@@H](Cc3ccccc3)NC(=O)[C@H](Cc3ccccc3)NC2=O)C(N)=O)NC(=O)CNC1=O", "note": "[CPP12-2-P1] (I: cyclo(FLGELDPETGE) / II: cyclo(F[dF][Bta]R[dR]R[dR]E); linker I:4-II:8 via X2)", "values": [
      {"measurement": "Increase of luciferase activity", "setting": "[5]", "value": "~ 2 fold"},
      {"measurement": "Maximal induction of luciferase expression", "setting": "[5]", "value": "three- to four-fold"}
    ]},
    {"smiles": "CC(C)C[C@@H]1NC(=O)[C@H](Cc2ccccc2)NC(=O)[C@H](CCC(=O)O)NC(=O)CNC(=O)[C@H]([C@@H](C)O)NC(=O)[C@H](CCC(=O)O)NC(=O)[C@@H]2CCCN2C(=O)[C@H](CC(=O)O)NC(=O)[C@H](CC(C)C)NC(=O)[C@H](CCC(=O)NCCOCCOCC(=O)NCCCC[C@H](NC(=O)CC[C@@H]2NC(=O)[C@@H](CCCNC(=N)N)NC(=O)[C@H](CCCNC(=N)N)NC(=O)[C@@H](CCCNC(=N)N)NC(=O)[C@H](CCCNC(=N)N)NC(=O)[C@H](Cc3ccc4ccccc4c3)NC(=O)[C@@H](Cc3ccccc3)NC(=O)[C@H](Cc3ccccc3)NC2=O)C(N)=O)NC(=O)CNC1=O", "note": "[CPP12-P1] (I: cyclo(FLGELDPETGE) / II: cyclo(F[dF][2Nal]R[dR]R[dR]E); linker I:4-II:8 via X2)", "values": [
      {"measurement": "Increase of luciferase activity", "setting": "[5]", "value": "did not have significant effect"},
      {"measurement": "Maximal induction of luciferase expression", "setting": "[5]", "value": "three- to four-fold"}
    ]},
    {"smiles": "CC(C)C[C@@H]1NC(=O)[C@H](Cc2ccccc2)NC(=O)[C@H](CCC(=O)O)NC(=O)CNC(=O)[C@H]([C@@H](C)O)NC(=O)[C@H](CCC(=O)O)NC(=O)[C@@H]2CCCN2C(=O)[C@H](CC(=O)O)NC(=O)[C@H](CC(C)C)NC(=O)[C@H](CCC(N)=O)NC(=O)CNC1=O", "note": "[Peptide P1]", "values": [
      {"measurement": "Increase in luciferase activity", "setting": "[5]; up to 5 μM", "value": "did not result in significant increase"}
    ]}
  ]
}
